Experimental data from ChEMBL document CHEMBL3217567, “Differential activation of soluble guanylate cyclase by a series of aryl disulfanyl dinitrate esters” (Medchemcomm, 2014).

How the values were obtained:
Rattus norvegicus [1] = species: Rattus norvegicus; assay: Activation of Sprague-Dawley rat soluble guanylate cyclase after 10 mins in presence of cysteine relative to GTN
Rattus norvegicus [2] = species: Rattus norvegicus; assay: (§1) Activation of Sprague-Dawley rat soluble guanylate cyclase after 10 mins in presence of cysteine
[3] = target: Soluble guanylate cyclase (Homo sapiens) (UniProt Q02153+O75343+P33402+Q02108); assay: Activation of soluble guanylate cyclase (unknown origin) assessed as apparent initial rate of oxidation of oxyhemoglobin in presence of cysteine relative to GTN; type: protein-complex assay
[4] = Activation of Sprague-Dawley rat soluble guanylate cyclase after 10 mins
Rattus norvegicus [5] = species: Rattus norvegicus; assay: Activation of Sprague-Dawley rat soluble guanylate cyclase after 10 mins relative to GTN
[6] = as §1

Structure (SMILES)	Emax (Rattus norvegicus [1]) [%]	Activity (Rattus norvegicus [2])	Ratio [3]	EC50 [4] [µM]	Efficacy (Rattus norvegicus [5]) [%]	EC50 [6] [µM]
O=[N+]([O-])OCC(CSSc1ccccc1)O[N+](=O)[O-] (stereo not drawn)	201	Dose-dependent effect				
COc1ccc(SSCC(CO[N+](=O)[O-])O[N+](=O)[O-])cc1 (stereo not drawn)	245	Dose-dependent effect	2			
Cc1ccc(SSCC(CO[N+](=O)[O-])O[N+](=O)[O-])cc1 (stereo not drawn)	279	Dose-dependent effect		170	114	
O=[N+]([O-])OCC(CO[N+](=O)[O-])O[N+](=O)[O-] [NITROGLYCERIN]						200
O=[N+]([O-])OCC(CSSc1ccc(Cl)cc1)O[N+](=O)[O-] (stereo not drawn)	195	Dose-dependent effect				
O=[N+]([O-])OCC(CSSc1ccc(Br)cc1)O[N+](=O)[O-] (stereo not drawn)	218	Dose-dependent effect		40	60	
O=[N+]([O-])OCC(CSSc1ccc(F)cc1)O[N+](=O)[O-] (stereo not drawn)	192	Dose-dependent effect				
